Assays:
hippocampal neurons = test: Aβ-induced synapse loss (synaptophysin/Shank3 puncta) in dissociated hippocampal neurons; assay type: cell-based, rat; conditions: 5 μM Nitarsone, 48 h, 500 nM Aβ1-42
Method: (§1) Hippocampal and cortical cultures were prepared from Wistar rat embryos (E18) of mixed sex as described previously (Spilker et al., 2016). Briefly, dissected were digested for 15 min with trypsin at 37° C. Neurons were plated on plastic 12-well dishes (Greiner) on glass coverslips coated with poly-L-lysine (Sigma-Aldrich) at a density of 60 000 cells/well in DMEM medium (Gibco, Thermo Fisher Scientific) supplemented with 10% FCS, 1× penicillin/streptomycin, and 2 mM glutamine. After 1 h incubation (at the 37° C., 5% CO2, 95% humidity) cells were kept in BrainPhys medium supplemented with 1% SM1 (Stemmcell Technologies), 0.5 mM Glutamine (Gibco) at 37° C., 5% CO2 and 95% humidity. […]
(§2) For quantitation of nuclear staining intensity (pCREB or CREB) somatic regions were sequentially scanned using the 63× objective (Leica) in both: Leica TCS SP8-STED and Leica TCS SP5 systems. […] Unprocessed images were analysed using Fiji/ImageJ software (Schindelin et al., 2012). For visualization of the quantified channel a fire look-up table (LUT) was used. Synaptic density was quantified in secondary dendrites using Fiji/ImageJ (Schindelin et al., 2012). […] Intensity of the GluA1 channel was measured in ROIs defined by a Shank3 mask as a readout for surface AMPAR expression.

GluA1 AMPA-receptors = test: Synaptic surface expression of GluA1 AMPA-receptors in hippocampal neurons; assay type: cell-based, rat; conditions: 5 μM Nitarsone with 500 nM Aβ1-42, 48 h
Method: as §1, §2

TBA2.1 and 5×FAD mice = test: Synaptic density in stratum lacunosum moleculare of CA1 after oral Nitarsone; assay type: in vivo, mouse
Method: Animals were anesthetized with ketamine/xylazine (Medistar) and transcardially perfused with 0.9% saline followed by 4% PFA. The brains were post-fixed in 4% PFA in PBS overnight, followed by immersion in 0.5 M sucrose for 24 h and then 1M sucrose for another 1 to 2 days or until the brains were sunken down. The brains were snap-frozen and cut into 35 μm thick coronal cryosections (Leica CM3050S, Leica-Microsystems). The sections were blocked in a buffer (0.3% TX-100, 10% NGS in PBS) for 30 min at RT, and incubated with primary antibodies diluted in the blocking solution, overnight at 4° C. Secondary antibodies were applied for 2 h at RT. Sections were counterstained with DAPI and mounted in Mowiol 4-88 (Merck Chemicals). For the detection of Aβ, the heat-based antigen retrieval method was used. For anti-Aβ staining, following permeabilization, brain sections were immersed into […] sodium citrate solution (Fluka, pH=9) for 30 min at 80° C. Imaging of nuclear pCREB/CREB immunoreactivities in cryosections was performed using a Leica TCS SP5 system (Leica-Microsystems). Images were acquired sequentially with a HCX ApoL20×/1.0 water objective, optical zoom 4. Sections were imaged with constant laser/detector settings along the z-axis with 400 nm step in a 512×512 pixel format.
. For TBA2.1 mice (both sexes), treatment started at the age of 4 weeks. […]

TBA2.1 mice = test: Open-field test; assay type: in vivo, mouse
Text: . For TBA2.1 mice (both sexes), treatment started at the age of 4 weeks. The animals were group housed and force fed for 4 weeks. […] Treatment in 5×FAD male mice started at the age of 12 weeks. Here, animals were single housed right away and given a choice between voluntary and forced feeding. […] During the course of the 7th week of treatment, animals were either subjected to perfusion to obtain their brains for subsequent immunohistochemistry or they were culled to obtained native brains for electrophysiological recordings.
Locomotor activity was assessed using the Open-field test, performed in a square arena (45×45×45 cm) made of black Plexiglas and dimly illuminated. The animals were placed in the center of the arena, and were left to explore it for 10 min. The sessions were video recorded, and the distance travelled in the maze as well as the speed was tracked with ANY-maze Software 7.0 (Stoelting Co). Data were analyzed in 1 min bins.

O=[N+]([O-])c1ccc([As](=O)(O)O)cc1 [Nitarsone, (4-nitrophenyl) arsonic acid]
Aβ-induced synapse loss (hippocampal neurons): completely prevented | downscaling of synaptic surface expression of GluA1 AMPA-receptors (GluA1 AMPA-receptors): significantly attenuated | synapse loss in the stratum lacunosum moleculare (TBA2.1 and 5×FAD mice; 5×FAD mice): clearly reduced synapse loss | synapse loss in the stratum lacunosum moleculare (TBA2.1 and 5×FAD mice; TBA2.1 mice): clearly reduced synapse loss | preference index (TBA2.1 mice; FIG. 11 panel L, TBA2.1 mice): does not influence preference index | distance travelled during open field arena exploration (TBA2.1 mice; FIG. 11 panel M, TBA2.1 mice): slightly normalizes increased distance travelled | preference index (TBA2.1 mice; FIG. 11 panel N, printed TBA2.1 mice): does not influence preference index | distance travelled during open field arena exploration (TBA2.1 mice; FIG. 11 panel O, printed TBA2.1 mice): slightly normalizes increased distance travelled

Reference: patent US20250295627A1 (Leibniz-Institut Fuer Neurobiologie, priority 2022, published 2025)
